According to patent US8242160B2, “Inhibitors of ubiquitin E1” (The United States of America, as represented by the …, priority 2005, dated 2012):

Assays:
Nedd4 = experiment: In vitro autoubiquitination of HECT E3 Nedd4; assay type: biochemical
Procedure: It was then evaluated whether 4-[4-(5-nitro-furan-2-ylmethylene)-3,5-dioxo-pyrazolidin-1-yl]-benzoic acid methyl acid blocks autoubiquitination of both RING finger E3s (Mdm2) and HECT E3s (Nedd4) in vitro.
5 pmole per experimental point of bacterially expressed GST-Mdm2 (or GST-Nedd) is coupled to glutathione Sepharose (GS) for 30 minutes at room temperature with tumbling, followed by 3× wash with 50 mM Tris pH 7.5. Following this, 20 μl of 1× buffer is added (40 μl 10× reaction buffer*, 40 μl 10× PCK**, 320 μl dH2O). The test compound in DMSO is then added to the desired concentration with an equal volume of DMSO used as a control. Samples are incubated with shaking for 1 hr at 23° C. To carry out the reaction, a pre-made cocktail of Rabbit E1 (Calbiochem #6620700)/UbCH5B/^32P Ub cocktail (1 μl/0.5 μl/1 μl) is added followed by 15 minutes shaking at 30° C. The reaction is terminated by addition of 8 μl 4× reducing SDS-PAGE loading buffer. After dissociating proteins from the beads at 100° C. for 2 minutes, samples are resolved on 6% PAGE followed by exposure of the dried gel to phosphor screen. Note: ^32P Ub is derived from GST-Ub that has been engineered to include a PKA phosphorylation site. This fusion protein is purified on glutathione Sepharose, phosphorylated, following this, the ^32P Ub ubiquitin is cleaved and purified away from the thrombin.

TRAF6 = experiment: TNFα-induced TRAF6 ubiquitination, immunoprecipitation and immunoblotting; assay type: cell-based; settings: T cell leukemia Jurkat
Text: To determine whether 4-[4-(5-nitro-furan-2-ylmethylene)-3,5-dioxo-pyrazolidin-1-yl]-benzoic acid methyl acid blocks ubiquitination of TRAF6 in response to TNFα, TRAF6 was immunoprecipitated from the T cell leukemia Jurkat after TNFα treatment, followed by immunoblotting (FIG. 4C).

[1] = tested on: MEFs (mouse embryonic fibroblasts) that express wild type p53; experiment: Killing of MEFs that express wild type p53; assay type: cell-based
Text: (§1) While p53 induces apoptotic cell death in many tumor cells, it generally only induces growth arrest in untransformed cells. This has been the rationale for many studies targeting the p53 system.

IκBα [2] = experiment: TNFα-induced IκBα degradation in cells; assay type: cell-based
U2O cells = experiment: Proteasome inhibitor-induced accumulation of ubiquitylated proteins; assay type: cell-based; settings: 50 μM with ALLN 50 μM, four hours
[3] = tested on: MEFs from p53-deficient mice; experiment: Killing of MEFs from p53-deficient mice; assay type: cell-based, mouse
Text: as §1

cyclin E = experiment: Degradation of in vitro translated cyclin E in S-100 cytosolic extract; assay type: biochemical
Text: Cytosolic extracts from cells (S-100) contain all the components for ubiquitination and proteasomal degradation. To further evaluate 4-[4-(5-nitro-furan-2-ylmethylene)-3,5-dioxo-pyrazolidin-1-yl]-benzoic acid methyl acid, we made use of in vitro translated cyclin E, which is degraded in S-100 in a time-dependent manner (FIG. 3, upper panel, lanes 1-4).

E1 = target: T1, E1 (Homo sapiens, UniProt P22314); experiment: Loading of E1 with ubiquitin in cells, anti-E1 immunoblot; assay type: cell-based; settings: 50 μM, 1 hour
T1 construct: endogenous in cells; host or cells: RPE cells
T1 sequence (P22314 1-1058): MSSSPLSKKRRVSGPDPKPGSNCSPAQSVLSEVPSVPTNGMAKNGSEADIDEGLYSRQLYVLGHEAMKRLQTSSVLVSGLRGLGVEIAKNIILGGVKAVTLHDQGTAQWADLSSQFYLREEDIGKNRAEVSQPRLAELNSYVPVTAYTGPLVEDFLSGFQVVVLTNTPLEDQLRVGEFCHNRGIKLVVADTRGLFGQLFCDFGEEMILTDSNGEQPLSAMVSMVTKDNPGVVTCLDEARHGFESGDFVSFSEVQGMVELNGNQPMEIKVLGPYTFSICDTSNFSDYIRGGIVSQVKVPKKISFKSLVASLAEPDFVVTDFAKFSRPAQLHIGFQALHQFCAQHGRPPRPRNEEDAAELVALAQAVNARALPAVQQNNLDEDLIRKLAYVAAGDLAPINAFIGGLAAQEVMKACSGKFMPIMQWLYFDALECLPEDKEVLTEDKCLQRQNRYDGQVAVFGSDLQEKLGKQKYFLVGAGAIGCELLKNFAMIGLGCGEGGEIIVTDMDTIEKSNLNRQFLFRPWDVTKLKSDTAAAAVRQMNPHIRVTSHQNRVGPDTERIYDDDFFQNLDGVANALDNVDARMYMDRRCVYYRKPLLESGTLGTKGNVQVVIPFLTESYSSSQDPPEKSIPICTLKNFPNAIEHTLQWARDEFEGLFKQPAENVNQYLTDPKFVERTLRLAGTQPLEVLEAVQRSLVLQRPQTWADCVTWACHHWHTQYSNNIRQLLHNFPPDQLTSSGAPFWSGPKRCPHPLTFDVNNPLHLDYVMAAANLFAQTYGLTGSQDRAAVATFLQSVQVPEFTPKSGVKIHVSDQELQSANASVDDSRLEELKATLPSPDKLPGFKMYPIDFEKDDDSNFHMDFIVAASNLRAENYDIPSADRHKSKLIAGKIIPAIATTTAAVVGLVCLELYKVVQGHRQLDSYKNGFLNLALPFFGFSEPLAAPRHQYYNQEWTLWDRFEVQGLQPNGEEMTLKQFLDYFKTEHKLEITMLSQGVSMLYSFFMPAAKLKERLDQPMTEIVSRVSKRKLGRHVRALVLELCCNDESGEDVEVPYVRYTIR
Procedure: RPE cells were treated with the E1 inhibitor of 4-[4-(5-nitro-furan-2-ylmethylene)-3,5-dioxo-pyrazolidin-1-yl]-benzoic acid methyl acid (designated as EI-41, 50 μM), HLI98C (50 μM) or iodoacetamide […] for 1 hour followed by lysis, SDS-PAGE under either non-reducing (FIG. 7A) or reducing (FIG. 7B) conditions and immunoblotting with anti-E1. Results are shown in FIGS. 7A and 7B, where the EI-41 compound is shown to inhibit the loading of EI with ubiquitin.

p53 [4] = experiment: p53-driven luciferase reporter assay; assay type: cell-based
Text: FIG. 5B depicts the results of reporter assays showing that the p53 induced by 4-[4-(5-nitro-furan-2-ylmethylene)-3,5-dioxo-pyrazolidin-1-yl]-benzoic acid methyl acid is transcriptionally active.

IκBα [5] = experiment: TNFα-induced IκBα phosphorylation in cells; assay type: cell-based; settings: 1 minute stimulation
p53 [6] = experiment: Cellular p53 level by immunoblotting; assay type: cell-based; settings: six hours treatment; RPE cells
Text: (§2) FIG. 5A depicts the increase in the levels of Mdm2 and p53 in RPE cells after treatment with the E1 inhibitor 4-[4-(5-nitro-furan-2-ylmethylene)-3,5-dioxo-pyrazolidin-1-yl]-benzoic acid methyl acid.

Mdm2 = experiment: Cellular Mdm2 level by immunoblotting; assay type: cell-based; settings: six hours treatment; RPE cells
Text: as §2

Q: Which results are given for `COC(=O)c1ccc(N2NC(=O)/C(=C/c3ccc([N+](=O)[O-])o3)C2=O)cc1` [E1-41, 4-[4-(5-nitro-furan-2-ylmethylene)-3,5-dioxo-pyrazolidin-1-yl]-benzoic acid methyl acid]?
A: autoubiquitination of Nedd4 (Nedd4): inhibits the autoubiquitination of Nedd4; TNFα-induced ubiquitination of TRAF6 (TRAF6): effectively inhibited; killing of MEFs expressing wild type p53 [1]: only kills MEFs; TNFα-induced IκBα degradation (IκBα [2]): prevents TNFα-induced IκBα degradation; accumulation of ubiquitylated proteins in proteasome inhibitor-treated cells (U2O cells): inhibit the accumulation of ubiquiylated proteins; killing of MEFs from p53-deficient mice [3]: relatively resistant; cyclin E degradation in S-100 (cyclin E; no exogenous E1): block cyclin E degradation; cyclin E degradation in S-100 after addition of purified exogenous E1 (cyclin E; purified exogenous E1 added to the reaction mixture): inhibition of cyclin E degradation was prevented; E1-Ub thiol-ester formation in RPE cells (E1): inhibit E1-Ub thiol-ester formation; activation of p53-driven luciferase reporter (p53 [4]): activated a p53-driven luciferase reporter to a level comparable to adriamycin; IκBα phosphorylation following TNFα treatment (IκBα [5]): blocks IκBα phosphorylation; cellular p53 level (p53 [6]): increased; cellular Mdm2 level (Mdm2): increased
